Data reported in patent publication US10829520B2, “Beta-hairpin peptidomimetics” (POLYPHOR AG, priority 2015, dated 2020).
Where a SMILES comes first, the peptide text is derived from it. Bridges are numbered along the chain shown (N, C = ends). Roman numbers before positions name the chains, in order. [ ]: non-standard residue; d: D form. Tle = CC(C)(C)[C@H](N)C(=O)O; dDab = NCC[C@@H](N)C(=O)O; Nle = CCCC[C@H](N)C(=O)O; Orn = NCCC[C@H](N)C(=O)O; Dab = NCC[C@H](N)C(=O)O

Key:
Assay type in all cases: cell-based
[1] = test system: Acinetobacter baumannii 872842; conditions: 872842
[2] = test system: Escherichia coli ATCC 25922; conditions: ATCC 25922
Procedure, shortened: (§1)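 MIC in μg/mL read as absence of visible growth after 18-20 h incubation at 35° C. Bacteria at about 10^6 CFU/mL in MH-II (cation-adjusted) broth plus 0.002% P-80 were exposed to two-fold peptide dilutions per standard CLSI microdilution.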

[3] = test system: Escherichia coli 926415; conditions: 926415
[4] = test system: Klebsiella pneumoniae SSI #3010; conditions: SSI #3010
Procedure, shortened: as §1

[5] = test system: Pseudomonas aeruginosa ATCC 27853; conditions: ATCC 27853
Procedure, shortened: as §1

[6] = test system: Acinetobacter baumannii DSM 30008; conditions: DSM 30008
Procedure, shortened: as §1

[7] = test system: Klebsiella pneumoniae 968733; conditions: 968733
[8] = test system: human red blood cells (hRBC); assay: Hemolysis of human red blood cells; conditions: red cells of human, 1 h
Procedure, shortened: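 Fresh human red blood cells are washed in PBS, then shaken with peptide (100 μg/mL) at 37° C. for 1 h, final erythrocyte density about 0.9×10^9 cells/mL. After centrifugation, diluted supernatants are read at 540 nm against buffer (0%) and Triton X-100 (100%) lysis controls.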

Row | Compound | Acinetobacter baumannii 872842 MIC [1] | Escherichia coli ATCC 25922 MIC [2] | Escherichia coli 926415 MIC [3] | Klebsiella pneumoniae SSI #3010 MIC [4] | Pseudomonas aeruginosa ATCC 27853 MIC [5] | Acinetobacter baumannii DSM 30008 MIC [6] | Klebsiella pneumoniae 968733 MIC [7] | Hemolysis at 100 μg/mL [8]; 100 | Hemolysis at 100 μg/mL ([8]; 100 μg/mL)
1 | CCCC[C@@H]1NC(=O)[C@@H]2CCCN2C(=O)[C@H]2CCCN2C(=O)[C@H](CO)NC(=O)[C@H](C)NC(=O)[C@H](C(C)(C)C)NC(=O)[C@H](CCN)NC(=O)[C@H](Cc2c[nH]c3ccccc23)NC(=O)[C@H](CCN)NC(=O)[C@H](CCC(=O)N[C@H](C(=O)N[C@@H](CCN)C(=O)N[C@H]2CCNC(=O)[C@H]([C@@H](C)O)NC(=O)[C@H](CCN)NC(=O)[C@H](CCN)NC(=O)[C@H](CC(C)C)NC(=O)[C@@H](Cc3ccccc3)NC(=O)[C@H](CCN)NC2=O)[C@@H](C)O)NC(=O)[C@H](CCCN)NC(=O)[C@H](CCN)NC(=O)[C@H](Cc2ccc(O)cc2)NC(=O)[C@H](CO)NC1=O [Ex. 6] (I: cyclo([Nle]SY[Dab][Orn]E[Dab]W[Dab][Tle]AS[dP]P) / II: T[Dab][Dab][Dab][dF]L[Dab][Dab]T; amide I:6-II:N; lactam II:3-II:C) | 2 µg/mL | 0.25 µg/mL | 1 µg/mL | 0.5 µg/mL | 0.5 µg/mL | 2 µg/mL | 2 µg/mL | <1% | –
2 | CCCC[C@@H]1NC(=O)[C@@H]2CCCN2C(=O)[C@H]2CCCN2C(=O)[C@H](CO)NC(=O)[C@H](C)NC(=O)[C@H](C(C)(C)C)NC(=O)[C@H](CCN)NC(=O)[C@H](Cc2c[nH]c3ccccc23)NC(=O)[C@H](CCN)NC(=O)[C@@H](CCN)NC(=O)[C@H](CCC(=O)N[C@@H](CCN)C(=O)N[C@H](C(=O)N[C@@H](CCN)C(=O)N[C@H]2CCNC(=O)[C@H]([C@@H](C)O)NC(=O)[C@H](CCN)NC(=O)[C@H](CCN)NC(=O)[C@H](CC(C)C)NC(=O)[C@@H](Cc3ccccc3)NC(=O)[C@H](CCN)NC2=O)[C@@H](C)O)NC(=O)[C@H](CCN)NC(=O)[C@H](Cc2ccc(O)cc2)NC(=O)[C@H](CO)NC1=O [Ex. 7] (I: cyclo(W[Dab][Tle]AS[dP]P[Nle]SY[Dab]E[dDab][Dab]) / II: [Dab]T[Dab][Dab][Dab][dF]L[Dab][Dab]T; amide I:12-II:N; lactam II:4-II:C) | 1 µg/mL | 0.125 µg/mL | 0.25 µg/mL | 0.25 µg/mL | 0.25 µg/mL | 1 µg/mL | 2 µg/mL | 1% | –
3 | CC(C)C[C@@H]1NC(=O)[C@@H](Cc2ccccc2)NC(=O)[C@H](CCN)NC(=O)[C@@H](NC(=O)[C@H](CCN)NC(=O)[C@@H](NC(=O)[C@H](CCN)NC(=O)[C@H]2CC(=O)N[C@@H](CCN)C(=O)N[C@@H](Cc3c[nH]c4ccccc34)C(=O)N[C@@H](CCN)C(=O)N[C@@H](C(C)(C)C)C(=O)N[C@@H](C)C(=O)N[C@@H](CO)C(=O)N3CCC[C@@H]3C(=O)N3CCC[C@H]3C(=O)N[C@@H](C(C)C)C(=O)N[C@@H](CO)C(=O)N[C@@H](Cc3ccc(O)cc3)C(=O)N[C@@H](CCN)C(=O)N[C@@H](CCCN)C(=O)N2)[C@@H](C)O)CCNC(=O)[C@H]([C@@H](C)O)NC(=O)[C@H](CCN)NC(=O)[C@H](CCN)NC1=O [Ex. 8] ([Dab]W[Dab][Tle]AS[dP]PVSY[Dab][Orn][dD][Dab]T[Dab][Dab][Dab][dF]L[Dab][Dab]T; lactam 18-C, N-14) | 0.5 µg/mL | 0.25 µg/mL | 1 µg/mL | 0.25 µg/mL | 0.25 µg/mL | 0.5 µg/mL | 2 µg/mL | 1% | –
4 | CCCC[C@@H]1NC(=O)[C@@H]2CCCN2C(=O)[C@H]2CCCN2C(=O)[C@H](CO)NC(=O)[C@H](C)NC(=O)[C@H](C(C)(C)C)NC(=O)[C@H](CCN)NC(=O)[C@H](Cc2c[nH]c3ccccc23)NC(=O)[C@H](CCN)NC(=O)[C@@H](CCC(=O)N[C@@H](CCN)C(=O)N[C@H](C(=O)N[C@@H](CCN)C(=O)N[C@H]2CCNC(=O)[C@H]([C@@H](C)O)NC(=O)[C@H](CCN)NC(=O)[C@H](CCN)NC(=O)[C@H](CC(C)C)NC(=O)[C@@H](Cc3ccccc3)NC(=O)[C@H](CCN)NC2=O)[C@@H](C)O)NC(=O)[C@H](CCCN)NC(=O)[C@H](CCN)NC(=O)[C@H](Cc2ccc(O)cc2)NC(=O)[C@H](CO)NC1=O [Ex. 9] (I: cyclo([Nle]SY[Dab][Orn][dE][Dab]W[Dab][Tle]AS[dP]P) / II: [Dab]T[Dab][Dab][Dab][dF]L[Dab][Dab]T; amide I:6-II:N; lactam II:4-II:C) | 2 µg/mL | 0.25 µg/mL | 1 µg/mL | 0.5 µg/mL | 0.5 µg/mL | 0.25 µg/mL | 2 µg/mL | 1% | –
5 | CCCC[C@@H]1NC(=O)[C@@H]2CCCN2C(=O)[C@H]2CCCN2C(=O)[C@H](CO)NC(=O)[C@H](C)NC(=O)[C@H](C(C)(C)C)NC(=O)[C@H](CCN)NC(=O)[C@H](Cc2c[nH]c3ccccc23)NC(=O)[C@H](CCC(=O)N[C@@H](CCN)C(=O)N[C@H](C(=O)N[C@@H](CCN)C(=O)N[C@H]2CCNC(=O)[C@H]([C@@H](C)O)NC(=O)[C@H](CCN)NC(=O)[C@H](CCN)NC(=O)[C@H](CC(C)C)NC(=O)[C@@H](Cc3ccccc3)NC(=O)[C@H](CCN)NC2=O)[C@@H](C)O)NC(=O)[C@@H](CCN)NC(=O)[C@H](CCCN)NC(=O)[C@H](CCN)NC(=O)[C@H](Cc2ccc(O)cc2)NC(=O)[C@H](CO)NC1=O [Ex. 10] (I: cyclo([Nle]SY[Dab][Orn][dDab]EW[Dab][Tle]AS[dP]P) / II: [Dab]T[Dab][Dab][Dab][dF]L[Dab][Dab]T; amide I:7-II:N; lactam II:4-II:C) | 1 µg/mL | 0.125 µg/mL | 0.5 µg/mL | 0.25 µg/mL | 0.5 µg/mL | 1 µg/mL | 2 µg/mL | 1% | –
6 | CCCC[C@@H]1NC(=O)[C@@H]2CCCN2C(=O)[C@H]2CCCN2C(=O)[C@H](CO)NC(=O)[C@H](C)NC(=O)[C@H](C(C)(C)C)NC(=O)[C@@H](NC(=O)[C@H](Cc2c[nH]c3ccccc23)NC(C)=O)CSSC[C@@H](C(=O)N[C@@H](CCN)C(=O)N[C@H](C(=O)N[C@@H](CCN)C(=O)N[C@H]2CCNC(=O)[C@H]([C@@H](C)O)NC(=O)[C@H](CCN)NC(=O)[C@H](CCN)NC(=O)[C@H](CC(C)C)NC(=O)[C@@H](Cc3ccccc3)NC(=O)[C@H](CCN)NC2=O)[C@@H](C)O)NC(=O)[C@H](Cc2ccc(O)cc2)NC(=O)[C@H](CO)NC1=O [Ex. 12] (Ac-WC[Tle]AS[dP]P[Nle]SYC[Dab]T[Dab][Dab][Dab][dF]L[Dab][Dab]T; disulfide 2-11; lactam 15-C) | 0.125 µg/mL | 0.125 µg/mL | 0.125 µg/mL | 0.125 µg/mL | 0.5 µg/mL | 0.0625 µg/mL | 0.5 µg/mL | – | <1%
7 | CCCC[C@@H]1NC(=O)[C@@H]2CCCN2C(=O)[C@H]2CCCN2C(=O)[C@H](CO)NC(=O)[C@H](C)NC(=O)[C@H](C(C)(C)C)NC(=O)[C@@H](NC(=O)[C@H](Cc2c[nH]c3ccccc23)NC(C)=O)CSSC[C@@H](C(=O)N[C@@H](CCCN)C(=O)N[C@H](C(=O)N[C@@H](CCN)C(=O)N[C@H]2CCNC(=O)[C@H]([C@@H](C)O)NC(=O)[C@H](CCN)NC(=O)[C@H](CCN)NC(=O)[C@H](CC(C)C)NC(=O)[C@@H](Cc3ccccc3)NC(=O)[C@H](CCN)NC2=O)[C@@H](C)O)NC(=O)[C@H](Cc2ccc(O)cc2)NC(=O)[C@H](CO)NC1=O [Ex. 13] (Ac-WC[Tle]AS[dP]P[Nle]SYC[Orn]T[Dab][Dab][Dab][dF]L[Dab][Dab]T; disulfide 2-11; lactam 15-C) | 0.25 µg/mL | 0.5 µg/mL | 0.5 µg/mL | 0.5 µg/mL | 0.5 µg/mL | 0.125 µg/mL | 1 µg/mL | – | 1%
